According to PubChem BioAssay (NCI):
Several values for one entry are separate records, joined by “and”; a condition that tells them apart may be missing. Identical values can stand only once.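 Exposure lasted 48 hours, with cells grown in 96-well plates and compounds tested at five concentrations. At the GI50, growth is halved. Definition used: TGI = concentration required for complete inhibition of growth.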

What was measured:
Test in all cases: NCI tumour cell line growth inhibition, 48 h
[1] = tested on: 786-0 renal
[2] = tested on: HCC-2998 colon
[3] = tested on: HOP-92 NSCLC
[4] = tested on: HS 578T breast
[5] = tested on: MOLT-4 leukemia
[6] = tested on: SF-268 CNS
[7] = tested on: SF-539 CNS
[8] = tested on: SR leukemia
[9] = tested on: U251 CNS
[10] = tested on: UACC-257 melanoma

For COc1cc2c(cc1O)NC(=O)[C@@H]1C[C@@H](O)CN1C2=O, the TGI [1] was over 100 µM, the TGI [2] was over 100 µM and the TGI [3] was over 100 µM. For the same compound, the TGI [4] was over 100 µM, the TGI [5] was over 100 µM and the TGI [6] was over 100 µM. For the same compound, the TGI [7] was over 100 µM, the TGI [8] was over 100 µM and the TGI [9] was over 100 µM. The TGI [10] was over 100 µM.
CCNC(=S)N/N=C(/C)c1cccc(/C(C)=N\NC(=S)NCC)n1 gave a TGI [1] of over 100 µM, a TGI [2] of over 96.7 µM and a TGI [3] of 24.6 µM. For the same compound, the TGI [4] was over 96.6 µM, the TGI [5] was 14.7 µM and the TGI [6] was over 100 µM. The TGI [7] was 23.7 µM, the TGI [8] was over 15.7 µM and the TGI [9] was 58 µM. It also gave a TGI [10] of 31.6 µM.
Compound CC(=O)CCC1(C(=O)OCC(C)C)CCCC1=O (stereo not drawn) has a TGI [1] of over 100 µM, a TGI [3] of over 100 µM and a TGI [4] of over 100 µM. It also gave a TGI [5] of over 100 µM, a TGI [6] of over 100 µM and a TGI [7] of over 100 µM. It also gave a TGI [9] of over 100 µM and a TGI [10] of over 100 µM.
In the case of Clc1[nH]nc2ccccc12, the TGI [1] is reported as over 100 µM, the TGI [2] is reported as over 100 µM and the TGI [3] is reported as over 100 µM. The TGI [4] was over 100 µM, the TGI [5] was over 100 µM and the TGI [6] was over 100 µM. The TGI [7] was over 100 µM, the TGI [9] was over 100 µM and the TGI [10] was over 100 µM.
C=CCOC(C)(C)C1=CCC(C)CC1 (stereo not drawn) showed a TGI [1] of over 100 µM, a TGI [2] of over 100 µM and a TGI [3] of over 100 µM. For the same compound, the TGI [4] was over 100 µM, the TGI [5] was over 100 µM and the TGI [6] was over 100 µM. The TGI [7] was over 100 µM, the TGI [9] was over 100 µM and the TGI [10] was over 100 µM.
O=[N+]([O-])/C=C/c1cc(Cl)c(/C=C/[N+](=O)[O-])cc1Cl showed a TGI [2] of 3.99 µM, a TGI [3] of 6.77 µM and a TGI [4] of 8.25 µM. For the same compound, the TGI [6] was 16.5 µM and the TGI [10] was 5.25 µM.
O=C(Nc1ccc(-n2cc(-c3ccncc3)c(-c3ccc(O)c(Cl)c3)n2)cc1)Nc1cc(C(F)(F)F)cc(C(F)(F)F)c1 showed a GI50 [2] of 5.03 µM, a TGI [2] of 22.1 µM and a GI50 [3] of 1.64 µM. The TGI [3] was 5.74 µM, the GI50 [4] was 1.94 µM and the TGI [4] was 7.41 µM. It also gave a GI50 [5] of 4.29 µM, a TGI [5] of 18.3 µM and a GI50 [6] of 4.37 µM. For the same compound, the TGI [6] was 16 µM, the GI50 [7] was 3.81 µM and the TGI [7] was 15.3 µM. It also gave a GI50 [8] of 6.06 µM, a TGI [8] of 31.3 µM and a GI50 [9] of 2.98 µM. The TGI [9] was 12.4 µM, the GI50 [10] was 5.81 µM and the TGI [10] was 20.5 µM.
Compound CC(C)CNP(=O)(NCC(C)C)Oc1ccc(CC(NC(=O)OCc2ccccc2)C(=O)OCc2ccccc2)cc1 (stereo not drawn) has a TGI [1] of 28.9 µM, a TGI [2] of 30.7 µM and a TGI [3] of over 100 µM. The TGI [4] was 85.8 µM, the TGI [5] was 41.1 µM and the TGI [6] was 33 µM. It also gave a TGI [8] of 29.2 µM, a TGI [9] of 30.1 µM and a TGI [10] of 59.1 µM.
Compound COC(=O)c1c(O)ccc2c1c1c(n2Cc2ccc(OC)cc2)C(=O)c2ccccc2C1 has a TGI [1] of over 100 µM, a TGI [4] of over 100 µM and a TGI [5] of over 100 µM. For the same compound, the TGI [6] was over 100 µM, the TGI [7] was over 100 µM and the TGI [8] was over 100 µM. It also gave a TGI [9] of over 100 µM and a TGI [10] of over 100 µM.
With COc1ccc(C(=CCC(C)C2CCC3[C@@H]4C(OC(C)=O)CC5CC(OC(C)=O)CC[C@]5(C)C4CC(OC(C)=O)[C@]23C)c2ccc(OC)cc2)cc1 (stereo partly drawn) the TGI [1] was over 100 µM, the TGI [2] was over 100 µM and the TGI [4] was over 100 µM. For the same compound, the TGI [5] was over 100 µM, the TGI [6] was over 100 µM and the TGI [7] was over 100 µM. For the same compound, the TGI [8] was 77.5 µM, the TGI [9] was over 100 µM and the TGI [10] was over 100 µM.
Work on Cc1ccc(S(=O)(=O)OCCN(CCOS(=O)(=O)c2ccc(C)cc2)c2ccc(C=O)cc2)cc1 yielded a TGI [2] of 85.5 µM, a TGI [3] of 75.3 µM and a TGI [4] of over 100 µM. The TGI [5] was over 100 µM, the TGI [6] was over 100 µM and the TGI [7] was over 100 µM. The TGI [9] was 71.5 µM and the TGI [10] was 61 µM.
COc1cc(C2c3cc4c(cc3[C@@H](Nc3ccc(F)cc3)C3COC[C@H]23)OCO4)cc(OC)c1O (stereo partly drawn) gave a TGI [1] of 6.35 µM, a TGI [2] of over 25 µM and a TGI [4] of 4.21 µM. It also gave a TGI [5] of 0.993 µM, a TGI [6] of over 25 µM and a TGI [7] of 3.49 µM. The TGI [8] was 5.5 µM, the TGI [9] was 18 µM and the TGI [10] was over 25 µM.
Compound NCCCNc1nc2ccccc2c2c(=O)c3cc(Cl)ccc3sc12 has a GI50 [3] of 1.28 µM, a TGI [3] of 3.35 µM and a GI50 [4] of 2.01 µM. It also gave a TGI [4] of 5.24 µM, a GI50 [7] of 1.72 µM and a TGI [7] of 3.15 µM. It also gave a GI50 [10] of 2 µM and a TGI [10] of 3.74 µM.
With N#Cc1cc(F)cc(Oc2ccc(S(=O)(=O)C(F)F)c3c2CC(F)(F)[C@H]3O)c1 the GI50 [2] was 48 µM, the TGI [2] was over 100 µM and the GI50 [3] was 16 µM. For the same compound, the TGI [3] was 46.5 µM, the GI50 [4] was 28.5 µM and the TGI [4] was over 100 µM. The GI50 [5] was 27.6 µM, the TGI [5] was over 100 µM and the GI50 [6] was 35.4 µM. The TGI [6] was over 100 µM, the GI50 [7] was 37 µM and the TGI [7] was over 100 µM. The GI50 [8] was 36 µM, the TGI [8] was over 100 µM and the GI50 [9] was 29.8 µM. It also gave a TGI [9] of over 100 µM, a GI50 [10] of 24.6 µM and a TGI [10] of 79.1 µM.
For O=c1[nH]ncc2[nH]c3c(c12)CCc1ccccc1-3, the TGI [1] was over 100 µM, the TGI [3] was 81.8 µM and the TGI [4] was 59.2 µM. It also gave a TGI [5] of 69.7 µM, a TGI [6] of over 100 µM and a TGI [7] of 42.1 µM. It also gave a TGI [8] of over 100 µM, a TGI [9] of over 100 µM and a TGI [10] of over 100 µM.
Cn1c2c(c3c(=O)[nH]ncc31)Cc1ccccc1-2 gave a TGI [1] of 51 µM, a TGI [3] of 69.4 µM and a TGI [4] of over 100 µM. The TGI [5] was over 100 µM, the TGI [6] was 94.2 µM and the TGI [7] was 78.7 µM. It also gave a TGI [8] of 28.4 µM, a TGI [9] of 85.8 µM and a TGI [10] of 27.1 µM.
In the case of CC(=O)C1(C(=O)C(=[N+]=[N-])S(=O)(=O)c2ccccc2)CC1, the TGI [1] is reported as over 100 µM, the TGI [2] is reported as over 100 µM and the TGI [4] is reported as over 100 µM. The TGI [5] was over 100 µM, the TGI [6] was over 100 µM and the TGI [7] was over 100 µM. The TGI [8] was over 100 µM, the TGI [9] was over 100 µM and the TGI [10] was over 100 µM.
For Nc1c(C(=O)O)c2ccc([N+](=O)[O-])cc2c(=O)n1-c1nc2ccccc2s1, the TGI [1] was over 100 µM, the TGI [2] was over 100 µM and the TGI [4] was over 100 µM. For the same compound, the TGI [5] was over 100 µM, the TGI [6] was over 100 µM and the TGI [8] was over 100 µM. The TGI [9] was over 100 µM.
Compound COc1cccc2c(=O)oc(-c3ccccc3C)nc12 has a TGI [1] of over 100 µM, a TGI [2] of over 100 µM and a TGI [3] of over 100 µM. The TGI [4] was over 100 µM, the TGI [5] was 68 µM and the TGI [6] was over 100 µM. The TGI [7] was 69.4 µM, the TGI [8] was over 100 µM and the TGI [9] was over 100 µM.
COC(=O)C(Cc1ccccc1)NC(=O)C(CNC(=O)OCc1ccccc1)C(=O)OCc1ccccc1 (stereo not drawn) was tested, and the TGI [2] was over 100 µM, the GI50 [3] was > 100 µM and 31.9 µM and the TGI [3] was over 100 µM. The GI50 [4] was 59 µM, the TGI [4] was over 100 µM and the GI50 [5] was > 100 µM and 10.4 µM. The TGI [5] was > 100 µM and 30.3 µM, the TGI [8] was over 100 µM and the TGI [9] was over 100 µM.
For COC1=C(OC)C(=O)C(Cc2c(Cl)nc3sccn23)=C(C)C1=O, the TGI [1] was 33.2 µM, the TGI [2] was 32.1 µM and the TGI [4] was 50.3 µM. For the same compound, the TGI [5] was 4.17 µM, the TGI [6] was 30.4 µM and the TGI [7] was 25 µM. It also gave a TGI [8] of 18.5 µM, a TGI [9] of 25.1 µM and a TGI [10] of 16.1 µM.
Compound CC1=NC(=N)N=C(C)C1N=Nc1ccc2nc(C)[nH]c2c1 (stereo not drawn) has a TGI [1] of over 100 µM, a TGI [2] of over 100 µM and a TGI [3] of over 100 µM. For the same compound, the TGI [4] was over 100 µM, the TGI [5] was over 100 µM and the TGI [6] was over 100 µM. It also gave a TGI [7] of over 100 µM, a TGI [9] of over 100 µM and a TGI [10] of over 100 µM.
